Test results as given in article PMC4666608, “Metabolic Profiling of Chicken Embryos Exposed to Perfluorooctanoic Acid (PFOA) and Agonists to Peroxisome Proliferator-Activated Receptors” (PLoS ONE, 2015).
Where “and” joins values, the source holds several entries; their conditions need not be identical. Identical values can stand only once.

Tested on: chicken embryos
Test: Plasma lipids (total, LDL, HDL cholesterol, triacylglycerols), photometric
Settings: for HDL-C in plasma, mean ± SD / LDL-C in plasma, mean ± SD / LDL/HDL in plasma, mean ± SD / Total cholesterol in plasma, mean ± SD / Triacylglycerols in plasma, mean ± SD: E12; for LDL/HDL: plasma
Method: The experimental procedures in this study were approved by the Uppsala Ethical Committee for Research on Animals (Permit number C 211/12). Fertilized chicken eggs (Gallus gallus domesticus) were obtained from a local breeder (Ova Production AB, Vittinge, Sweden). The egg weights were 60 ± 4 g (mean and standard deviation). The eggs were incubated at 37.5°C and 60% relative humidity with automatic turning every six hours. The day the eggs were placed in the incubator was defined as embryonic day zero (E0). Chicken embryos were exposed to test substances by air sac injection in eggs incubated for seven days (E7). At this stage, the extraembryonic allantoic blood vessel network has grown to cover the inner shell membrane beneath the air sac and the injected substance will come in direct contact with the vascular network. The exposures were performed as follows: Unfertilized eggs and poorly developing embryos were recognized by candling and were sorted out. Eggs with embryos of normal size were collected and randomly distributed into the different treatment groups. On E7, the blunt end of each egg was wiped with alcohol and a small hole was drilled through the shell above the air sac. The dissolved test substance (20 μl) was deposited onto the inner shell membrane in the air sac and the hole was sealed with melted paraffin wax. Following injection, eggs were held horizontally and rotated for a few seconds to allow dispersal over the inner shell membrane in the air sac. Each egg was marked with a number specifying the treatment group and was placed at a random location in the incubator.
The doses were 150 μg/egg (approximately 2.5 mg/kg egg) for GW7647 and rosiglitazone and 50, 250 or 1000 μg/egg for PFOA (approximately 0.83, 4.2 and 18 mg/kg egg, respectively). Controls were injected with 20 μL vehicle only (DMSO). Due to the large number of embryos required, the experiment was divided into four replicate experiments (replicate A-D) performed the same way but on separate occasions. The number of exposed embryos was 10–15 for each treatment group and replicate.
A subset of randomly chosen embryos from each group (except the 1000 μg/egg group) was sampled for metabolomic analysis of allantoic fluid and blood plasma. Samples of allantoic fluid and blood were collected before decapitation and dissection of the embryo as described below. The egg shell was removed above the air cell without disrupting the inner shell membrane. Allantoic fluid was collected by gently inserting a needle through the inner shell membrane and into the allantoic sac and then aspiring the fluid with a syringe. The samples were placed in microtubes on ice during sampling and then stored at -70°C until processed for metabolomic analysis. Blood was collected from the allantoic artery, just proximal to its first branch. The artery was gently cleaned from membranes, lifted with a small spoon and then punctured with a needle. Blood flowing into the spoon was immediately collected with heparinized capillaries. Blood was stored in heparinized microtubes on ice during sampling and was then centrifuged at a speed of 1300g for 10 min at 4°C. Plasma was collected and stored at -70°C. The embryos were killed by decapitation and dissected immediately following blood sampling.
Total cholesterol, low-density lipoprotein (LDL) cholesterol, high-density lipoprotein (HDL) cholesterol, and triacylglycerols in plasma were analyzed with an Architect c8000 (Abbott Diagnostics, Abbott Park, IL, USA), using a photometric method, at the department of Clinical Chemistry and Pharmacology, Uppsala University Hospital, Sweden. The laboratory is accredited according to EN/ISO 15189 medical laboratory requirements. A total of 80 samples were analyzed; control: 7 females and 8 males; GW7647: 7 females and 8 males; rosiglitazone: 5 females and 12 males; 50 μg PFOA/egg: 11 females and 6 males; 250 μg PFOA/egg: 10 females and 6 males.

[1] = group PFOA 50 (µg/egg), group mean
[2] = group PFOA 50 (µg/egg), individual embryos
[3] = group PFOA 250 (µg/egg), group mean
[4] = group PFOA 250 (µg/egg), individual embryos

## CC(C)(Sc1ccc(CCN(CCCCC2CCCCC2)C(=O)NC2CCCCC2)cc1)C(=O)O [GW7647, reference compound]
150 μg/egg
  HDL-C in plasma, mean ± SD: 0.63 ± 0.05 mM
  LDL-C in plasma, mean ± SD: 1.5 ± 0.2 mM
  LDL/HDL in plasma, mean ± SD: 2.4 ± 0.4
  Total cholesterol in plasma, mean ± SD: 5.5 ± 0.3 mM
  Triacylglycerols in plasma, mean ± SD: 4.9 ± 0.7 mM

## O=C(O)C(F)(F)C(F)(F)C(F)(F)C(F)(F)C(F)(F)C(F)(F)C(F)(F)F [PFOA, perfluorooctanoic acid]
PFOA 50 μg/egg
  HDL-C in plasma, mean ± SD: 0.59 ± 0.06 mM
  LDL-C in plasma, mean ± SD: 1.5 ± 0.2 mM
  LDL/HDL in plasma, mean ± SD: 2.5 ± 0.3
  Total cholesterol in plasma, mean ± SD: 5.2 ± 0.8 mM
  Triacylglycerols in plasma, mean ± SD: 5.0 ± 0.8 mM
PFOA 250 μg/egg
  HDL-C in plasma, mean ± SD: 0.57 ± 0.05 mM
  LDL-C in plasma, mean ± SD: 1.5 ± 0.3 mM
  LDL/HDL in plasma, mean ± SD: 2.6 ± 0.5
  Total cholesterol in plasma, mean ± SD: 5.0 ± 0.5 mM
  Triacylglycerols in plasma, mean ± SD: 5.0 ± 0.7 mM
[1]
  HDL-Cholesterol in plasma: 0.59 mM
  LDL-Cholesterol in plasma: 1.5 mM
  Total Cholesterol in plasma: 5.2 mM
  Triacylglycerols in plasma: 5.0 mM
  LDL/HDL: 2.5
[2]
  HDL-Cholesterol in plasma: 0.63 mM and 0.53 mM and 0.55 mM and 0.69 mM and 0.59 mM and 0.56 mM and 0.65 mM and 0.49 mM and 0.62 mM and 0.64 mM and 0.48 mM and 0.58 mM
  LDL-Cholesterol in plasma: 1.90 mM and 1.20 mM and 1.50 mM and 1.80 mM and 1.40 mM and 1.30 mM and 1.60 mM and 1.00 mM
  Total Cholesterol in plasma: 6 mM and 4.6 mM and 5.1 mM and 5.7 mM and 5.9 mM and 5 mM and 5.4 mM and 6.1 mM and 3.8 mM and 5.3 mM and 4.3 mM and 4.2 mM and 4.1 mM
  Triacylglycerols in plasma: 6 mM and 4.8 mM and 5.1 mM and 5.7 mM and 5 mM and 4.9 mM and 5.4 mM and 4.5 mM and 6.2 mM and 4.2 mM and 3.6 mM and 3.5 mM
  LDL/HDL: 3.0 and 2.3 and 2.7 and 2.9 and 2.2 and 2.4 and 2.1 and 2.0 and 2.6 and 3.1 and 2.5
[3]
  HDL-Cholesterol in plasma: 0.57 mM
  LDL-Cholesterol in plasma: 1.5 mM
  Total Cholesterol in plasma: 5.0 mM
  Triacylglycerols in plasma: 5.0 mM
  LDL/HDL: 2.6
[4]
  HDL-Cholesterol in plasma: 0.52 mM and 0.54 mM and 0.49 mM and 0.56 mM and 0.55 mM and 0.57 mM and 0.51 mM and 0.64 mM and 0.58 mM and 0.61 mM and 0.63 mM and 0.53 mM and 0.6 mM
  LDL-Cholesterol in plasma: 2.20 mM and 1.40 mM and 1.50 mM and 1.10 mM and 1.20 mM and 1.80 mM and 1.30 mM and 1.70 mM and 1.60 mM
  Total Cholesterol in plasma: 5.2 mM and 4 mM and 4.9 mM and 5.7 mM and 5 mM and 5.4 mM and 4.2 mM and 4.4 mM and 4.7 mM and 5.1 mM
  Triacylglycerols in plasma: 5.1 mM and 5.7 mM and 3.8 mM and 4.5 mM and 6 mM and 4.7 mM and 5.4 mM and 4.8 mM and 4.2 mM and 4.9 mM
  LDL/HDL: 4.2 and 2.6 and 2.9 and 2.7 and 2.0 and 2.4 and 2.8 and 2.1 and 1.7 and 2.2

## CN(CCOc1ccc(CC2SC(=O)NC2=O)cc1)c1ccccn1 (centres unmarked) [Rosiglitazone, rosiglitazone, reference compound]
150 μg/egg
  HDL-C in plasma, mean ± SD: 0.60 ± 0.06 mM
  LDL-C in plasma, mean ± SD: 1.5 ± 0.2 mM
  LDL/HDL in plasma, mean ± SD: 2.5 ± 0.4
  Total cholesterol in plasma, mean ± SD: 5.2 ± 0.4 mM
  Triacylglycerols in plasma, mean ± SD: 5.4 ± 0.8 mM
Group mean
  HDL-Cholesterol in plasma: 0.60 mM
  LDL-Cholesterol in plasma: 1.5 mM
  Total Cholesterol in plasma: 5.2 mM
  Triacylglycerols in plasma: 5.4 mM
  LDL/HDL: 2.5
Individual embryos
  HDL-Cholesterol in plasma: 0.65 mM and 0.59 mM and 0.53 mM and 0.58 mM and 0.55 mM and 0.71 mM and 0.6 mM and 0.7 mM and 0.57 mM and 0.51 mM and 0.69 mM and 0.52 mM and 0.61 mM
  LDL-Cholesterol in plasma: 2.00 mM and 1.70 mM and 1.20 mM and 1.50 mM and 1.10 mM and 1.60 mM and 1.40 mM and 1.00 mM and 1.80 mM
  Total Cholesterol in plasma: 5.8 mM and 4.8 mM and 4.1 mM and 5.4 mM and 4.9 mM and 5.5 mM and 5.9 mM and 5.2 mM and 5.3 mM and 5 mM and 5.6 mM
  Triacylglycerols in plasma: 4.5 mM and 4.3 mM and 4.7 mM and 6 mM and 5 mM and 5.3 mM and 5.6 mM and 4.6 mM and 7.1 mM and 6.3 mM and 6.4 mM and 5.5 mM
  LDL/HDL: 3.1 and 2.9 and 2.3 and 2.6 and 2.7 and 2.1 and 2.8 and 1.7 and 2.5 and 2.0 and 2.2 and 3.0 and 3.5
